Experimental data from patent US6451293B1, “Combination of erythrulose and a reducing sugar with self-tanning properties” (Pentapharm AG, priority 1997, dated 2002).

Columns and labels:
skin [1] = conditions: known active substance, background statement; cited from earlier work
skin [2] = assay: time for the skin tan/colour to develop; conditions: in vivo
Experimental: The hitherto most frequently used active substance is dihydroxyacetone (hereinafter referred to as “DHA”). The fast tanning active substance (4-7 hours) does, however, have some disadvantages. The skin colour achieved is yellowish-brown, which produces an unnatural colour, particularly in pale skin. In addition, the tan is irregular and soon pales again because the top-most layers of the epidermis are quickly shed. […] This may be attributed to the fact that erythrulose dyes the skin more slowly (the colour takes about 20-24 hours to develop) and less intensively, but instead also penetrates lower layers of the Stratum corneum where it is also able to react with the free amino groups. This not only results in more even tanning, but also in a retarded effect, with the result that the tan lasts longer. Moreover the skin becomes less dried out than, for example, with DHA alone. The synergistic effect, that will subsequently also be shown with reference to examples, of the active substance combination erythrulose/other reducing sugars, such as for example DHA, was not predictable.

SMILES | time of tanning (skin [1]) [h] | time the colour takes to develop (skin [2]) [h]
O=C(CO)CO [DHA, 1,3-dihydroxy-propan-2-one] | 4 to 7 | 
O=C(CO)C(O)CO (racemic) [erythrulose, 1,3,4-trihydroxy-butan-2-one] |  | 20 to 24
